2 molecules from ChEMBL document CHEMBL3525924, “Cytochrome P450 3A-mediated microsomal biotransformation of 1α,25-dihydroxyvitamin D3 in mouse and human liver: drug-related induction and inhibition of catabolism” (Drug Metab Dispos, 2012) can be followed below.

Molecules are shown by their SMILES.

Format in all cases: ADME
For data set [1], the target named is T1, Cytochrome P450 3A4 (Homo sapiens, UniProt P08684). The experiment in a line: Drug metabolism assessed as 100 uM tamoxifen-mediated inhibition of human CYP3A4-mediated metabolite formation by LC/MS analysis. As to conditions: recombinant enzyme.
Data set [2] has as its target T1, Cytochrome P450 3A4. Nature of the data set: Drug metabolism assessed as 1 uM ketoconazole-mediated inhibition of human CYP3A4-mediated metabolite formation by LC/MS analysis. As to conditions: recombinant enzyme.
Data set [3] addresses T1, Cytochrome P450 3A4. The experiment in a line: Drug metabolism assessed as 100 uM troleandromycin-mediated inhibition of human CYP3A4-mediated metabolite formation by LC/MS analysis. To be noted: recombinant enzyme.
The target in data set [4] is T1, Cytochrome P450 3A4. The experiment in a line: Drug metabolism assessed as 10 uM ritonavir-mediated inhibition of human CYP3A4-mediated metabolite formation by LC/MS analysis. As to conditions: recombinant enzyme.
For data set [5], the system named is Liver microsome. The experiment in a line: Drug metabolism in human liver microsomes assessed as IC50 for ketoconazole-mediated inhibition of metabolite formation at 20 uM after 30 mins by LC/MS analysis. To be noted: 0.5 h.
Data set [6] can be described thus: Drug metabolism in prednisone treated CD1 mouse liver microsomes assessed as metabolite formation at 20 uM after 30 mins by LC/MS analysis in presence of NADPH and CYP2A inhibitor 8-methoxypsoralen. To be noted: 0.5 h. (In general: Microsomes from liver hold many membrane-bound enzymes, among them those of drug oxidation.)
Data set [7] in a line: Drug metabolism in CD1 mouse liver microsomes assessed as metabolite formation at 20 uM after 30 mins by LC/MS analysis in presence of NADPH and CYP2D inhibitor quinine. As to conditions: 0.5 h.
For data set [8], the system named is Liver microsome. The experiment in a line: Drug metabolism in human liver microsomes assessed as IC50 for docetaxel-mediated inhibition of metabolite formation at 20 uM after 30 mins by LC/MS analysis. To be noted: 0.5 h.
Data set [9] in a line: Drug metabolism in prednisone treated CD1 mouse liver microsomes assessed as metabolite formation at 20 uM after 30 mins by LC/MS analysis in presence of NADPH and CYP2D inhibitor quinine. To be noted: 0.5 h.
The nature of data set [10]: Drug metabolism in CD1 mouse liver microsomes assessed as metabolite formation at 20 uM after 30 mins by LC/MS analysis in presence of NADPH and CYP1A2 inhibitor furafyline. As to conditions: 0.5 h.
Data set [11] in a line: Drug metabolism in prednisone treated CD1 mouse liver microsomes assessed as metabolite formation at 20 uM after 30 mins by LC/MS analysis in presence of NADPH and CYP1A1 inhibitor alpha-naphthoflavone. As to conditions: 0.5 h.
Data set [12] has as its system Liver microsome. The experiment in a line: Drug metabolism in human liver microsomes assessed as IC50 for tamoxifen-mediated inhibition of metabolite formation at 20 uM after 30 mins by LC/MS analysis. To be noted: 0.5 h.
Data set [13] can be described thus: Drug level in dexamethasone treated CD1 mouse liver microsomes treated with 20 uM of 1alpha,25(OH)2D3 after 30 mins by LC/MS analysis in presence of NADPH relative to vehicle treated mouse. As to conditions: 0.5 h.
Data set [14] in a line: Drug metabolism in dexamethasone treated CD1 mouse liver microsomes assessed as metabolite formation at 20 uM after 30 mins by LC/MS analysis in presence of NADPH and CYP1A1 inhibitor alpha-naphthoflavone. To be noted: 0.5 h.
In data set [15] the test system is Liver microsome. Nature of the data set: Drug metabolism in human liver microsomes assessed as IC50 for ritonavir-mediated inhibition of metabolite formation at 20 uM after 30 mins by LC/MS analysis. As to conditions: 0.5 h.
Data set [16] in a line: Drug metabolism in prednisone treated CD1 mouse liver microsomes assessed as metabolite formation at 20 uM after 30 mins by LC/MS analysis in presence of NADPH and CYP2B inhibitor orphenadrine. As to conditions: 0.5 h.
The nature of data set [17]: Drug metabolism in prednisone treated CD1 mouse liver microsomes assessed as metabolite formation at 20 uM after 30 mins by LC/MS analysis in presence of NADPH and CYP2C inhibitor sulfaphenazole. As to conditions: 0.5 h.
Data set [18] in a line: Drug metabolism in CD1 mouse liver microsomes assessed as metabolite formation at 20 uM after 30 mins by LC/MS analysis in presence of NADPH and CYP1A1 inhibitor alpha-naphthoflavone. As to conditions: 0.5 h.
Data set [19] in a line: Drug metabolism in dexamethasone treated CD1 mouse liver microsomes assessed as metabolite formation at 20 uM after 30 mins by LC/MS analysis in presence of NADPH and CYP2B inhibitor orphenadrine. To be noted: 0.5 h.
A short description of data set [20]: Drug metabolism in dexamethasone treated CD1 mouse liver microsomes assessed as metabolite formation at 20 uM after 30 mins by LC/MS analysis in presence of NADPH and CYP2D inhibitor quinine. To be noted: 0.5 h.
The nature of data set [21]: Drug metabolism in CD1 mouse liver microsomes assessed as metabolite formation at 20 uM after 30 mins by LC/MS analysis in presence of NADPH and CYP2C inhibitor sulfaphenazole. As to conditions: 0.5 h.
Data set [22] can be described thus: Drug metabolism in dexamethasone treated CD1 mouse liver microsomes assessed as metabolite formation at 20 uM after 30 mins by LC/MS analysis in presence of NADPH and CYP2C inhibitor sulfaphenazole. As to conditions: 0.5 h.
In data set [23] the test system is Liver microsome. Nature of the data set: Drug metabolism in human liver microsomes assessed as IC50 for clarithromycin-mediated inhibition of metabolite formation at 20 uM after 30 mins by LC/MS analysis. To be noted: 0.5 h.
Data set [24] can be described thus: Drug metabolism in CD1 mouse liver microsomes assessed as metabolite formation at 20 uM after 30 mins by LC/MS analysis in presence of NADPH and CYP2E inhibitor di-ethyldithiocarbamate. As to conditions: 0.5 h.
A short description of data set [25]: Drug metabolism in prednisone treated CD1 mouse liver microsomes assessed as metabolite formation at 20 uM after 30 mins by LC/MS analysis in presence of NADPH and CYP2E inhibitor di-ethyldithiocarbamate. As to conditions: 0.5 h.
Data set [26] is described as follows: Drug metabolism in dexamethasone treated CD1 mouse liver microsomes assessed as metabolite formation at 20 uM after 30 mins by LC/MS analysis in presence of NADPH and CYP2A inhibitor 8-methoxypsoralen. To be noted: 0.5 h.
A short description of data set [27]: Drug metabolism in dexamethasone treated CD1 mouse liver microsomes assessed as metabolite formation at 20 uM after 30 mins by LC/MS analysis in presence of NADPH and CYP1A2 inhibitor furafyline. As to conditions: 0.5 h.
A short description of data set [28]: Drug metabolism in CD1 mouse liver microsomes assessed as metabolite formation at 20 uM after 30 mins by LC/MS analysis in presence of NADPH and CYP2B inhibitor orphenadrine. To be noted: 0.5 h.
Data set [29] in a line: Drug metabolism in prednisone treated CD1 mouse liver microsomes assessed as metabolite formation at 20 uM after 30 mins by LC/MS analysis in presence of NADPH and CYP1A2 inhibitor furafyline. To be noted: 0.5 h.
The nature of data set [30]: Drug metabolism in dexamethasone treated CD1 mouse liver microsomes assessed as metabolite formation at 20 uM after 30 mins by LC/MS analysis in presence of NADPH and CYP2E inhibitor di-ethyldithiocarbamate. As to conditions: 0.5 h.
Data set [31] in a line: Drug metabolism in CD1 mouse liver microsomes assessed as metabolite formation at 20 uM after 30 mins by LC/MS analysis in presence of NADPH and CYP2A inhibitor 8-methoxypsoralen. To be noted: 0.5 h.
Data set [32] in a line: Drug metabolism in prednisone treated CD1 mouse liver microsomes treated with 20 uM of 1alpha,25(OH)2D3 assessed as metabolite formation after 30 mins by LC/MS analysis in presence of NADPH. To be noted: 0.5 h.
The subject of data set [33] is Liver microsome. The experiment in a line: Drug level in human liver microsomes assessed as retention time treated with 20 uM of 1alpha,25(OH)2D3 after 30 mins by LC/MS analysis in presence of NADPH. As to conditions: 0.5 h.

By IC50 is commonly meant the midpoint of a concentration-inhibition curve.

T1 sequence (P08684 whole entry): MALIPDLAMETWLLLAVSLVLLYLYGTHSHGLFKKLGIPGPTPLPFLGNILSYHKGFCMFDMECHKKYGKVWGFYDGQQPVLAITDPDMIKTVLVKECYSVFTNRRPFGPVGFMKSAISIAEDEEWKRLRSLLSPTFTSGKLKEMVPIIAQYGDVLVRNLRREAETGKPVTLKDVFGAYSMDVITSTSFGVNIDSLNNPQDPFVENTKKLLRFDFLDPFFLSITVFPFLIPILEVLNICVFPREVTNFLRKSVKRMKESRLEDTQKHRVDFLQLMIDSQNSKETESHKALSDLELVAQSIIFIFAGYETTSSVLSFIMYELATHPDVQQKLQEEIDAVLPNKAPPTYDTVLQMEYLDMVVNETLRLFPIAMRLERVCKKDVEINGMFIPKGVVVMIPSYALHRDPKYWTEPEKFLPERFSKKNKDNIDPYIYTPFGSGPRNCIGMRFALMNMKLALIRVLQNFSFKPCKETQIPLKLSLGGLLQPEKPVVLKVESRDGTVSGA

Regarding `Cc1nnc2n1-c1ccc(Cl)cc1C(c1ccccc1Cl)=NC2` [TRIAZOLAM], the Drug metabolism entry at Cytochrome P450 3A4 [1], at Cytochrome P450 3A4 [2], on Cytochrome P450 3A4 [3] and on Cytochrome P450 3A4 [4] was “metabolite_not_detected” in each case.
On to `C=C1/C(=C\C=C2/CCC[C@]3(C)[C@@H]([C@H](C)CC[C@H](O)C(C)(C)O)CC[C@@H]23)C[C@@H](O)C[C@@H]1O`, for which the IC50 in the data set on Liver microsome [5] was 565 nM; with Liver microsome [8], 12 nM; in the data set with Liver microsome [12], more than 40000 nM; in the data set with Liver microsome [15], 8 nM; in the data set with Liver microsome [23], more than 30000 nM. Besides, the Drug metabolism result in data set [6], in data set [7], in data set [9], in data set [10], in data set [11] and in data set [13] was “metabolite_detected” each time. The Drug metabolism result in data set [14], in data set [16], in [17], in data set [18], in data set [19] and in data set [20] was “metabolite_detected” each time. Also, the Drug metabolism result in [21], in data set [22], in data set [24], in data set [25], in data set [26] and in data set [27] was “metabolite_detected” throughout. In addition, the Drug metabolism entry in data set [28], in [29], in data set [30], in data set [31] and in data set [32] was “metabolite_detected” in each case. Besides, in the data set on Liver microsome [33], the Retention_time is 9 min.
